How the values were obtained:
[1] = test system: A375 cells; assay: A375 Cell Proliferation Assay (1); type: cell-based; settings: Homo sapiens, A-375
Summary of the method: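 Resazurin fluorescence (excitation 540 nm, emission 600 nm, after a further 5-6 h) gave IC50s from triplicate compound dilution series.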

[2] = biological target: B-Raf (V600E) (SEQ. ID NO: 4) kinase (Homo sapiens (Human), UniProt P15056, V600E); assay: Biochemical Assay for B-Raf (V600E) (1); settings: Table J, BRAF V600E, assay version (1); read-out: BRAF VE (1) IC50
B-Raf (V600E) (SEQ. ID NO: 4) kinase, sequence (P15056 416-766 V600E): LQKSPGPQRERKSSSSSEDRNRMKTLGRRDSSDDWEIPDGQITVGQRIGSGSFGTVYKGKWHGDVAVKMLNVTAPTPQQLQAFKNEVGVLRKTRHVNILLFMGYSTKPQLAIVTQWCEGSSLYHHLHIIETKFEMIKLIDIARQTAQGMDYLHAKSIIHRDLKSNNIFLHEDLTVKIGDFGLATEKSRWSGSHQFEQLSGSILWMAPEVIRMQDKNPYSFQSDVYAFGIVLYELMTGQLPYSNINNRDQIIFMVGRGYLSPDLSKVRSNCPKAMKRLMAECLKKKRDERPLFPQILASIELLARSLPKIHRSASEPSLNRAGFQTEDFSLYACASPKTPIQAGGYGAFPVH
Summary of the method: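 Serially diluted compounds tested against 0.03 nM enzyme with 30.1 nM MEK substrate and 1 mM ATP (Tris pH 7.5, 15 mM MgCl2), ATP use coupled to NADH loss via PK/LDH. A340 monitored continuously 6 h, 30 °C; IC50 fitted (four-parameter) from the 3–4 h rate versus no-compound and known-inhibitor controls.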

[3] = test system: WM3928 cells; assay: WM3928 Cell Proliferation Assay (1); type: cell-based
Procedure: WM3928 Cell Proliferation Assay (1)
WM3928 cells (#WM3928-01-0001) are obtained from Rockland Immunochemicals Inc (Gilbertsville, PA). Briefly, cells were grown in MCDB 153 medium (Sigma, #M7403, St. Louis, MO) supplemented with 20% Leibovitz's L-15 (ThermoFisher #11415-064, Waltham, MA), 2% heat inactivated fetal bovine serum (ThermoFisher, #A3840001, Waltham, MA), 5 μg/mL Insulin (Bovine Pancreas) (Sigma, #I0516, St. Louis, MO), 1.68 mM Calcium Chloride (Sigma, #C-34006, St. Louis, MO) and 1% Penicillin/Streptomycin/L-Glutamine (ThermoFisher #10378016, Waltham, MA) at 37° C., 5% CO2, and 95% humidity. Cells are expanded until reaching 70-95% confluency at which point they are subcultured or harvested for assay use. A serial dilution of test compound is dispensed into a 96-well black clear bottom plate in triplicate. Three thousand cells are added per well in 200 μL complete growth medium in the 96-well plate. Plates are incubated for 67-72 hours at 37° C., 5% CO2, and 95% humidity. At the end of the incubation, 40 μL of a 440 μM solution of resazurin (Sigma, #199303, St. Louis, MO) in PBS is added to each well of the plate and plates are incubated for an additional 6-7 hours at 37° C., 5% CO2, and 95% humidity. Plates are read on a Synergy2 or equivalent reader (Biotek, Winooski VT) using an excitation of 540 nm and an emission of 600 nm. Data is analyzed using Prism software (GraphPad, San Diego, CA) to calculate IC50 values.

Row | SMILES | IC50 [1] | IC50 [2] | IC50 [3]
1 | CC(=O)Nc1cc(-c2cc(-c3cc(NC(=O)c4ccnc(C(F)(F)F)c4)c(F)cc3C)cc(C)n2)ccn1 [Example 4] | 100 to 500 nM | ≤ 100 nM | 
2 | CC(=O)Nc1cc(-c2cc(-c3cc(NC(=O)c4ccnc(C(F)(F)F)c4)ccc3C)cc(C)n2)ccn1 [Example 5] | 100 to 500 nM | ≤ 100 nM | ≤ 100 nM
3 | Cc1cc(F)c(NC(=O)c2ccnc(C(F)(F)F)c2)cc1-c1ccnc(-c2ccnc(NC(=O)CN(C)C)c2)c1 [Example 7] | 500 to 1000 nM | ≤ 100 nM | 
4 | CC(=O)Nc1cc(-c2cc(-c3cc(NC(=O)c4ccnc(C(F)(F)F)c4)ccc3C)cc(=O)n2C)ccn1 [Example 11] | 1000 to 10000 nM | ≤ 100 nM | 
5 | Cc1ncc(NC(=O)c2ccnc(C(F)(F)F)c2)cc1-c1cccc(-c2ccnc(N)c2)c1 [Example 94] | 1000 to 10000 nM | ≤ 100 nM | 
6 | Cc1ncc(NC(=O)c2cccc(C(F)(F)F)c2)cc1-c1cccc(-c2ccnc(NC(=O)CC#N)c2)c1 [Example 97] | 100 to 500 nM | ≤ 100 nM | ≤ 100 nM
7 | Cc1ccc(NC(=O)c2ccnc(C(F)(F)F)c2)cc1-c1cncc(-c2ccnc(NC(=O)CC#N)c2)n1 [Example 98] | 500 to 1000 nM | ≤ 100 nM | 
8 | COCC(=O)Nc1cc(-c2cncc(-c3cc(NC(=O)c4ccnc(C(F)(F)F)c4)ccc3C)n2)ccn1 [Example 99] | 500 to 1000 nM | ≤ 100 nM | 
9 | Cc1ccc(NC(=O)c2ccnc(C(F)(F)F)c2)cc1-c1cncc(-c2ccnc(NC(=O)CN(C)C)c2)n1 [Example 100] | 100 to 500 nM | ≤ 100 nM | 
10 | Cc1ccc(NC(=O)c2ccnc(C(C)(C)C#N)c2)cc1-c1ccnc(-c2ccnc3c2CC(=O)N3)n1 [Example 101] | 500 to 1000 nM | ≤ 100 nM | 100 to 500 nM
11 | CC(=O)Nc1cc(-c2cc(-c3cc(NC(=O)c4ccnc(C(F)(F)F)c4)ccc3C)cn(CCO)c2=O)ccn1 [Example 102] | 1000 to 10000 nM | ≤ 100 nM | 
12 | Cc1ncc(NC(=O)c2ccnc(C(C)(C)C#N)c2)cc1-c1cccc(-c2ccnc3c2CC(=O)N3)c1 [Example 105] | 1000 to 10000 nM | ≤ 100 nM | 100 to 500 nM
13 | CNC(=O)c1cc(-c2cccc(-c3cc(NC(=O)c4ccnc(C(F)(F)F)c4)ccc3C)c2)ncn1 [Example 106] | 500 to 1000 nM | ≤ 100 nM | 
14 | CC(=O)Nc1cc(-c2nccc(-c3cc(NC(=O)c4ccnc(C(F)(F)F)c4)c(F)cc3C)n2)ccn1 [Example 107] | 100 to 500 nM | ≤ 100 nM | 
15 | Cc1ccc(NC(=O)c2ccnc(C(C)(C)C#N)c2)cc1-c1cccc(-c2ncnc3c2CC(=O)N3)c1 [Example 109] | 100 to 500 nM | ≤ 100 nM | ≤ 100 nM
16 | Cc1ncc(NC(=O)c2ccnc(C(C)(C)C#N)c2)cc1-c1cccc(-c2ncnc3c2CC(=O)N3)c1 [Example 110] | 1000 to 10000 nM | ≤ 100 nM | 500 to 1000 nM

Row | SMILES | IC50 [1] | IC50 [2] | IC50 [3]
17 | CC(=O)Nc1cc(-c2cc(-c3cc(NC(=O)c4ccnc(C(C)(C)C#N)c4)ccc3C)cn(C)c2=O)ccn1 [Example 113] | 100 to 500 nM | ≤ 100 nM | 100 to 500 nM
18 | Cc1ccc(NC(=O)c2ccnc(C(F)F)c2)cc1-c1cncc(-c2ccnc(NC(=O)C3CC3)c2)n1 [Example 117] | 100 to 500 nM | ≤ 100 nM | ≤ 100 nM
19 | COc1cc(C(=O)Nc2ccc(C)c(-c3cncc(-c4ccnc(NC(C)=O)c4)n3)c2)ccc1F [Example 120] | 1000 to 10000 nM | ≤ 100 nM | 
20 | CC(=O)Nc1cc(-c2cncc(-c3cc(NC(=O)c4ccc(Cl)c(C(F)(F)F)c4)ccc3C)n2)ccn1 [Example 121] | 100 to 500 nM | ≤ 100 nM | 
21 | Cc1ccc(NC(=O)c2ccnc(C(F)(F)F)c2)cc1-c1cncc(-c2ccnc(NC=O)c2)n1 [Example 123] | 100 to 500 nM | ≤ 100 nM | 100 to 500 nM
22 | CC(=O)Nc1nccc(-c2cccc(-c3cc(NC(=O)c4ccnc(C(F)(F)F)c4)ccc3C)c2)c1C#N [Example 132] | 500 to 1000 nM | ≤ 100 nM | 100 to 500 nM
23 | CNC(=O)c1cc(-c2cncc(-c3cc(NC(=O)c4cc(C(F)(F)F)ccn4)ccc3C)n2)ccn1 [Example 135] | 500 to 1000 nM | ≤ 100 nM | 
24 | CNC(=O)c1cc(-c2cncc(-c3cc(NC(=O)c4ccnc(C5(C#N)CC5)c4)ccc3C)n2)ccn1 [Example 138] | 100 to 500 nM | ≤ 100 nM | 
25 | CNC(=O)c1cc(-c2cncc(-c3cc(NC(=O)c4ccnc(C5CC5)c4)ccc3C)n2)ccn1 [Example 139] | 1000 to 10000 nM | ≤ 100 nM | 
26 | Cc1ccc(NC(=O)c2ccnc(C(C)(C)C#N)c2)cc1-c1cncc(-c2ccnc(N)c2)n1 [Example 141] | 1000 to 10000 nM | ≤ 100 nM | 
27 | COCCNc1cc(-c2cncc(-c3cc(NC(=O)c4ccnc(C(C)(C)C#N)c4)ccc3C)n2)ccn1 [Example 143] | 1000 to 10000 nM | ≤ 100 nM | 
28 | Cc1ccc(NC(=O)c2ccnc(C(C)(C)C#N)c2)cc1-c1cncc(-c2ccnc(C(=O)NC3CC3)c2)n1 [Example 148] | 1000 to 10000 nM | ≤ 100 nM | 500 to 1000 nM
29 | CC(=O)Nc1cc(-c2nccc(-c3cc(NC(=O)c4ccnc(C5CC5)c4)ccc3C)n2)ccn1 [Example 152] | 100 to 500 nM | ≤ 100 nM | ≤ 100 nM
30 | COCCNc1cc(-c2cccc(-c3cc(NC(=O)c4ccnc(C(F)(F)F)c4)ccc3C)c2)ncn1 [Example 156] | 1000 to 10000 nM | ≤ 100 nM | 500 to 1000 nM
31 | CC(=O)Nc1cc(-c2nccc(-c3cc(NC(=O)c4ccnc(C(F)(F)F)c4)cnc3C)n2)ccn1 [Example 157] | 1000 to 10000 nM | ≤ 100 nM | 100 to 500 nM
32 | CNc1cc(-c2cncc(-c3cc(NC(=O)c4ccnc(C(C)(C)C#N)c4)ccc3C)n2)ccn1 [Example 173] | 500 to 1000 nM | ≤ 100 nM | 

The next lines start with results.

Row | IC50 [1] | IC50 [2] | SMILES | IC50 [3]
33 | ≤ 100 nM | ≤ 100 nM | CCOc1cc(-c2cc(NC(=O)c3ccnc(C(F)(F)F)c3)ccc2C)cc(-c2ccnc(NC(C)=O)c2)n1 [Example 8] | 
34 | ≤ 100 nM | ≤ 100 nM | CC(=O)Nc1cc(-c2cc(-c3cc(NC(=O)c4ccnc(C(F)(F)F)c4)c(F)cc3C)cc(OC(C)C)n2)ccn1 [Example 10] | ≤ 100 nM
35 | ≤ 100 nM | ≤ 100 nM | CC(=O)Nc1cc(-c2cccc(-c3cc(NC(=O)c4ccnc(C(F)(F)F)c4)c(F)cc3C)c2)ncn1 [Example 114] | ≤ 100 nM
36 | ≤ 100 nM | ≤ 100 nM | CC(=O)Nc1cc(-c2nccc(-c3cc(NC(=O)c4ccnc(C(C)(C)C#N)c4)ccc3C)n2)ccn1 [Example 118] | ≤ 100 nM
37 | ≤ 100 nM | ≤ 100 nM | CNC(=O)c1cc(-c2cc(-c3cc(NC(=O)c4cccc(C(C)(C)C#N)c4)ccc3C)ccn2)ccn1 [Example 127] | 
38 | ≤ 100 nM | ≤ 100 nM | CNC(=O)c1cc(-c2cncc(-c3cc(NC(=O)c4cccc(C(C)(C)C#N)c4)ccc3C)n2)ccn1 [Example 136] | 
39 | ≤ 100 nM | ≤ 100 nM | CC(=O)Nc1cc(-c2cncc(-c3cc(NC(=O)c4ccnc(C(C)(C)C#N)c4)ccc3C)n2)ccn1 [Example 140] | ≤ 100 nM
40 | ≤ 100 nM | ≤ 100 nM | COCC(=O)Nc1cc(-c2cncc(-c3cc(NC(=O)c4ccnc(C(C)(C)C#N)c4)ccc3C)n2)ccn1 [Example 142] | 
41 | ≤ 100 nM | ≤ 100 nM | CC(=O)Nc1cc(-c2cncc(-c3cc(NC(=O)c4ccnc(C5CC5)c4)ccc3C)n2)ccn1 [Example 145] | ≤ 100 nM
42 | ≤ 100 nM | ≤ 100 nM | CC(=O)Nc1cc(-c2cncc(-c3cc(NC(=O)c4ccnc(C5(C#N)CC5)c4)ccc3C)n2)ccn1 [Example 146] | ≤ 100 nM
43 | ≤ 100 nM | ≤ 100 nM | CC(=O)Nc1cc(-c2nccc(-c3cc(NC(=O)c4cccc(C(C)(C)C#N)c4)ccc3C)n2)ccn1 [Example 150] | ≤ 100 nM
44 | ≤ 100 nM | ≤ 100 nM | CC(=O)Nc1cc(-c2nccc(-c3cc(NC(=O)c4ccnc(C5(C#N)CC5)c4)ccc3C)n2)ccn1 [Example 151] | ≤ 100 nM
45 | ≤ 100 nM | ≤ 100 nM | CC(=O)Nc1cc(-c2nccc(-c3cc(NC(=O)c4cc(C(F)(F)F)ccn4)ccc3C)n2)ccn1 [Example 153] | 
46 | ≤ 100 nM | ≤ 100 nM | Cc1ccc(NC(=O)c2ccnc(C(C)(C)C#N)c2)cc1-c1cncc(-c2ccnc(NC(=O)CC#N)c2)n1 [Example 154] | ≤ 100 nM
47 | ≤ 100 nM | ≤ 100 nM | CNC(=O)c1cc(-c2cc(-c3cc(NC(=O)c4ccnc(C(C)(C)C#N)c4)cnc3C)ccn2)ccn1 [Example 158] | 100 to 500 nM
